Data from patent publication US20060069132A1, “Azolecarboxamide herbicides” (priority 2004, published 2006).

Key:
velvetleaf = assay: Test B pre-/postemergence herbicide test; type: in vivo, Abutilon theophrasti
Procedure, shortened: (§1)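 Herbicidal effect was judged by eye on a 0–100 scale after plants stood 13 to 15 days in the greenhouse following pre- or postemergence treatment with surfactant-containing formulations.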

cocklebur = assay: Test B pre-/postemergence herbicide test; type: in vivo, Xanthium strumarium
Procedure, shortened: (§2)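 Plants compared with untreated controls 13–15 days post-treatment and given a visual 0–100 injury score. Applications: preemergence to seeds; postemergence at 1- to 4-leaf (2–18 cm); paddy species flooded, 2-leaf stage. Vehicle non-phytotoxic, surfactant included.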

Surinam grass = assay: Test B pre-/postemergence herbicide test; type: in vivo, Urochloa decumbens
Procedure, shortened: as §1

[1] = system: small flower umbrella sedge; assay: Test B flooded paddy test; type: in vivo, Cyperus difformis; conditions: 1000 g ai/ha, scale 0 to 100 (0 no effect, 100 complete control)
Procedure, shortened: (§3)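 Formulated test chemicals went onto postemergence plants measuring 2 to 18 cm, at one to four leaves. For the paddy assay, species had reached two leaves. Scoring took place 13–15 days later by eye, relative to untreated plants, using 0 for no effect up to 100 for full control.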

wild oat = assay: Test B postemergence herbicide test; type: in vivo, Avena fatua
Procedure, shortened: (§4)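 Visual ratings, 0 (no effect) to 100 (complete control), made versus controls after 13–15 d greenhouse. Paddy plants treated at 2-leaf stage; postemergence plants at 1- to 4-leaf stage, 2–18 cm tall.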

blackgrass = assay: Test B postemergence herbicide test; type: in vivo, Alopecurus myosuroides
Procedure, shortened: as §3

rice [2] = assay: Test B flooded paddy test; type: in vivo, Oryza sativa; conditions: 1000 g ai/ha, scale 0 to 100 (0 no effect, 100 complete control)
Procedure, shortened: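 Treated at 2-leaf (paddy) or 1–4-leaf, 2–18 cm (postemergence); greenhouse 13–15 d; visual score vs control, 0 none to 100 complete control; dash = not tested.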

pigweed = assay: Test B pre-/postemergence herbicide test; type: in vivo, Amaranthus retroflexus
Procedure, shortened: as §1

corn = assay: Test B pre-/postemergence herbicide test; type: in vivo, Zea mays
Procedure, shortened: as §1

lambsquarters = assay: Test B pre-/postemergence herbicide test; type: in vivo, Chenopodium album
Procedure, shortened: as §1

barnyardgrass [3] = assay: Test B flooded paddy test; type: in vivo, Echinochloa crus-galli; conditions: 1000 g ai/ha, scale 0 to 100 (0 no effect, 100 complete control)
Procedure, shortened: as §3

barnyardgrass [4] = assay: Test B pre-/postemergence herbicide test; type: in vivo, Echinochloa crus-galli
Procedure, shortened: as §2

rice [5] = assay: Test B pre-/postemergence herbicide test; type: in vivo, Oryza sativa; conditions: preemergence
Procedure, shortened: as §1

giant foxtail = assay: Test B pre-/postemergence herbicide test; type: in vivo, Setaria faberi
Procedure, shortened: as §1

ducksalad = assay: Test B flooded paddy test; type: in vivo, Heteranthera limosa; conditions: 1000 g ai/ha, scale 0 to 100 (0 no effect, 100 complete control)
Procedure, shortened: as §3

wheat = assay: Test B postemergence herbicide test; type: in vivo, Triticum aestivum; set-up: key to Wheat plant response rating: 0 = no effect, 100 = complete control
Procedure, shortened: as §4

large crabgrass = assay: Test B pre-/postemergence herbicide test; type: in vivo, Digitaria sanguinalis
Procedure, shortened: as §1

morningglory = assay: Test B pre-/postemergence herbicide test; type: in vivo, Ipomoea coccinea
Procedure, shortened: as §2

[6] = 125 g ai/ha; visual rating, scale 0 (no effect) to 100 (complete control); postemergence
[7] = 500 g ai/ha; visual rating, 0 = no effect, 100 = complete control; preemergence
[8] = postemergence, 500 g ai/ha; scale 0 to 100, 0 is no effect, 100 is complete control
[9] = 125 g ai/ha; 0 = no effect, 100 = complete control; preemergence
[10] = 125 g ai/ha, 0 = no effect, 100 = complete control
[11] = 500 g ai/ha, visual rating, 0 = no effect, 100 = complete control
[12] = 500 g ai/ha; visual rating 0-100, 0 no effect, 100 complete control; preemergence
[13] = Postemergence, 500 g ai/ha; visual rating after 13 to 15 days, scale 0 (no effect) to 100 (complete control)
[14] = postemergence, 125 g ai/ha; visual rating, scale 0 (no effect) to 100 (complete control)
[15] = preemergence, 125 g ai/ha; 0 to 100 scale, 0 is no effect, 100 is complete control
[16] = postemergence, 500 g ai/ha; visual rating, scale 0 (no effect) to 100 (complete control)

## CCn1nc(C(C)(C)C)cc1C(=O)Nc1cc(OC)ccc1OC [Compound 297]
velvetleaf; [6]
  Velvetleaf plant response rating: 0
velvetleaf; [7]
  Plant response rating, Velvetleaf: 10
velvetleaf; [8]
  Velvetleaf plant response rating: 10
cocklebur; [9]
  Cocklebur plant response rating (0 to 100 scale): 0
cocklebur; [6]
  Cocklebur plant response rating: 0
cocklebur; [7]
  Plant response rating, Cocklebur: 0
cocklebur; [8]
  Cocklebur plant response rating: 0
Surinam grass; [9]
  Surinam Grass plant response rating (0 to 100 scale): 10
Surinam grass; [6]
  Surinam Grass plant response rating: 20
Surinam grass; [7]
  Plant response rating, Surinam Grass: 20
Surinam grass; [8]
  Surinam Grass plant response rating: 30
[1]
  Sedge, Umbrella plant response rating: 80
Wild oat; [6]
  Oat, Wild plant response rating: 0
Wild oat; [8]
  Oat, Wild plant response rating: 20
blackgrass; [6]
  Blackgrass plant response rating: 10
blackgrass; [8]
  Blackgrass plant response rating: 20
Rice [2]
  Rice plant response rating: 20
pigweed; [9]
  Pigweed plant response rating (0 to 100 scale): 0
pigweed; [6]
  Pigweed plant response rating: 0
pigweed; [7]
  Plant response rating, Pigweed: 40
pigweed; [8]
  Pigweed plant response rating: 40
corn; [9]
  Corn plant response rating (0 to 100 scale): 0
corn; [6]
  Corn plant response rating: 10
corn; [7]
  Plant response rating, Corn: 0
corn; [8]
  Corn plant response rating: 100
lambsquarters; [9]
  Lambsquarters plant response rating (0 to 100 scale): 0
lambsquarters; [6]
  Lambsquarters plant response rating: 10
lambsquarters; [7]
  Plant response rating, Lambsquarters: 80
lambsquarters; [8]
  Lambsquarters plant response rating: 20
Barnyardgrass [3]
  Barnyardgrass plant response rating: 30
Barnyardgrass [4]; [9]
  Barnyardgrass plant response rating (0 to 100 scale): 0
Barnyardgrass [4]; [6]
  Barnyardgrass plant response rating: 10
Barnyardgrass [4]; [7]
  Plant response rating, Barnyardgrass: 20
Barnyardgrass [4]; [8]
  Barnyardgrass plant response rating: 20
Rice [5]; [10]
  Rice plant response rating (0 to 100 scale): 0
Rice [5]; [11]
  Plant response rating, Rice: 10
Giant foxtail; [9]
  Foxtail, Giant plant response rating (0 to 100 scale): 10
Giant foxtail; [6]
  Foxtail, Giant plant response rating: 20
Giant foxtail; [7]
  Plant response rating, Foxtail, Giant: 60
Giant foxtail; [8]
  Foxtail, Giant plant response rating: 30
ducksalad
  Ducksalad plant response rating: 30
wheat; [6]
  Wheat plant response rating: 0
wheat; [8]
  Wheat plant response rating: 10
Large crabgrass; [9]
  Crabgrass, Large plant response rating (0 to 100 scale): 20
Large crabgrass; [6]
  Crabgrass, Large plant response rating: 20
Large crabgrass; [7]
  Plant response rating, Crabgrass, Large: 80
Large crabgrass; [8]
  Crabgrass, Large plant response rating: 30
morningglory; [9]
  Morningglory plant response rating (0 to 100 scale): 10
morningglory; [6]
  Morningglory plant response rating: 0
morningglory; [7]
  Plant response rating, Morningglory: 10
morningglory; [8]
  Morningglory plant response rating: 30

## CCOC(=O)c1cc(NC(=O)c2cc(C(C)(C)C)nn2CC)ccc1C [Compound 99]
velvetleaf; [12]
  Plant response rating, Velvetleaf: 20
velvetleaf; [13]
  Plant response rating, Velvetleaf: 40
velvetleaf; [14]
  Velvetleaf plant response rating: 20
velvetleaf; [15]
  Plant response rating, Velvetleaf: 10
cocklebur; [12]
  Plant response rating, Cocklebur: 0
cocklebur; [13]
  Plant response rating, Cocklebur: 30
cocklebur; [14]
  Cocklebur plant response rating: 0
cocklebur; [15]
  Plant response rating, Cocklebur: 0
Surinam grass; [12]
  Plant response rating, Surinam Grass: 30
Surinam grass; [13]
  Plant response rating, Surinam Grass: 10
Surinam grass; [14]
  Surinam Grass plant response rating: 10
Surinam grass; [15]
  Plant response rating, Surinam Grass: 10
[1]; visual rating, 13 to 15 days
  Sedge, Umbrella plant response rating: 40
Wild oat; [13]
  Plant response rating, Oat, Wild: 40
Wild oat; [14]
  Oat, Wild plant response rating: 20
blackgrass; [13]
  Plant response rating, Blackgrass: 40
blackgrass; [14]
  Blackgrass plant response rating: 20
Rice [2]; visual rating, 13 to 15 days
  Rice plant response rating: 0
pigweed; [13]
  Plant response rating, Pigweed: 70
pigweed; [14]
  Pigweed plant response rating: 20
pigweed; [15]
  Plant response rating, Pigweed: 0
corn; [12]
  Plant response rating, Corn: 0
corn; [13]
  Plant response rating, Corn: 20
corn; [14]
  Corn plant response rating: 10
corn; [15]
  Plant response rating, Corn: 0
lambsquarters; [12]
  Plant response rating, Lambsquarters: 20
lambsquarters; [13]
  Plant response rating, Lambsquarters: 90
lambsquarters; [14]
  Lambsquarters plant response rating: 70
lambsquarters; [15]
  Plant response rating, Lambsquarters: 0
Barnyardgrass [3]; visual rating, 13 to 15 days
  Barnyardgrass plant response rating: 0
Barnyardgrass [4]; [12]
  Plant response rating, Barnyardgrass: 30
Barnyardgrass [4]; [13]
  Plant response rating, Barnyardgrass: 0
Barnyardgrass [4]; [14]
  Barnyardgrass plant response rating: 0
Barnyardgrass [4]; [15]
  Plant response rating, Barnyardgrass: 0
Rice [5]; 500 g ai/ha, visual rating 0-100, 0 no effect, 100 complete control
  Plant response rating, Rice: 0
Rice [5]; 125 g ai/ha, 0 to 100 scale, 0 is no effect, 100 is complete control
  Plant response rating, Rice: 0
Giant foxtail; [12]
  Plant response rating, Foxtail, Giant: 20
Giant foxtail; [13]
  Plant response rating, Foxtail, Giant: 30
Giant foxtail; [14]
  Foxtail, Giant plant response rating: 10
Giant foxtail; [15]
  Plant response rating, Foxtail, Giant: 10
ducksalad; visual rating, 13 to 15 days
  Ducksalad plant response rating: 0
wheat; [13]
  Plant response rating, Wheat: 20
wheat; [14]
  Wheat plant response rating: 20
Large crabgrass; [12]
  Plant response rating, Crabgrass, Large: 70
Large crabgrass; [13]
  Plant response rating, Crabgrass, Large: 10
Large crabgrass; [14]
  Crabgrass, Large plant response rating: 10
Large crabgrass; [15]
  Plant response rating, Crabgrass, Large: 20
morningglory; [12]
  Plant response rating, Morningglory: 0
morningglory; [13]
  Plant response rating, Morningglory: 20
morningglory; [14]
  Morningglory plant response rating: 0
morningglory; [15]
  Plant response rating, Morningglory: 0

## C=CCNC(=O)c1ccc(F)c(NC(=O)c2sc(CC)nc2C(C)(C)C)c1 [Compound 237]
velvetleaf; [9]
  Velvetleaf plant response rating (0 to 100 scale): 30
velvetleaf; [7]
  Plant response rating, Velvetleaf: 60
velvetleaf; [14]
  Velvetleaf plant response rating: 30
velvetleaf; [16]
  Velvetleaf plant response rating: 50
cocklebur; [9]
  Cocklebur plant response rating (0 to 100 scale): 0
cocklebur; [7]
  Plant response rating, Cocklebur: 0
cocklebur; [14]
  Cocklebur plant response rating: 10
cocklebur; [16]
  Cocklebur plant response rating: 40
Surinam grass; [9]
  Surinam Grass plant response rating (0 to 100 scale): 10
Surinam grass; [7]
  Plant response rating, Surinam Grass: 30
Surinam grass; [14]
  Surinam Grass plant response rating: 20
Surinam grass; [16]
  Surinam Grass plant response rating: 20
[1]
  Sedge, Umbrella plant response rating: 40
Wild oat; [14]
  Oat, Wild plant response rating: 0
Wild oat; [16]
  Oat, Wild plant response rating: 20
blackgrass; [14]
  Blackgrass plant response rating: 0
blackgrass; [16]
  Blackgrass plant response rating: 10
Rice [2]
  Rice plant response rating: 50
pigweed; [9]
  Pigweed plant response rating (0 to 100 scale): 20
pigweed; [7]
  Plant response rating, Pigweed: 70
pigweed; [14]
  Pigweed plant response rating: 30
pigweed; [16]
  Pigweed plant response rating: 60
corn; [9]
  Corn plant response rating (0 to 100 scale): 0
corn; [7]
  Plant response rating, Corn: 20
corn; [14]
  Corn plant response rating: 20
corn; [16]
  Corn plant response rating: 40
lambsquarters; [9]
  Lambsquarters plant response rating (0 to 100 scale): 70
lambsquarters; [7]
  Plant response rating, Lambsquarters: 90
lambsquarters; [14]
  Lambsquarters plant response rating: 60
lambsquarters; [16]
  Lambsquarters plant response rating: 70
Barnyardgrass [3]
  Barnyardgrass plant response rating: 60
Barnyardgrass [4]; [9]
  Barnyardgrass plant response rating (0 to 100 scale): 20
Barnyardgrass [4]; [7]
  Plant response rating, Barnyardgrass: 50
Rice [5]; [10]
  Rice plant response rating (0 to 100 scale): 0
Rice [5]; [11]
  Plant response rating, Rice: 30
Giant foxtail; [9]
  Foxtail, Giant plant response rating (0 to 100 scale): 0
Giant foxtail; [7]
  Plant response rating, Foxtail, Giant: 40
Giant foxtail; [14]
  Foxtail, Giant plant response rating: 10
Giant foxtail; [16]
  Foxtail, Giant plant response rating: 20
ducksalad
  Ducksalad plant response rating: 80
wheat; [14]
  Wheat plant response rating: 10
wheat; [16]
  Wheat plant response rating: 20
Large crabgrass; [9]
  Crabgrass, Large plant response rating (0 to 100 scale): 30
Large crabgrass; [7]
  Plant response rating, Crabgrass, Large: 90
Large crabgrass; [14]
  Crabgrass, Large plant response rating: 10
Large crabgrass; [16]
  Crabgrass, Large plant response rating: 20
morningglory; [9]
  Morningglory plant response rating (0 to 100 scale): 0
morningglory; [7]
  Plant response rating, Morningglory: 20
morningglory; [14]
  Morningglory plant response rating: 20
morningglory; [16]
  Morningglory plant response rating: 60
